The test system of one data set is ATF6. Put plainly: ATF6 activity assay. Particulars: tunicamycin treated Hela ATF6 reporter cells. The class given is cell-based. An excerpt:
Next, we evaluated the potential impact of the NR2 modulator set on endoplasmic reticulum (ER) stress in an ATF6 activity assay (Fig. 4b). The activating transcription factor 6 (ATF6) participates in the unfolded protein response and is activated under ER stress.[164] Tunicamycin-induced ATF6 activity was not affected by RXR and TLX modulators but was reduced by the inverse PNR agonists 22 and 23.
Hela cells containing a Renilla luciferase reporter gene for ATF6 activity (ATF6 Leeporter™ Luciferase Reporter-HeLa Cell Line, Abeomics Inc.; #14-138ACL) were cultured in DMEM supplemented with 10% heat-inactivated FCS, penicillin (100 U/mL), streptomycin (100 μg/mL) and puromycin (3 µg/mL) at 37°C and 5% (v/v) CO2 and seeded in 96-well plates (1 × 10^5 per well). After 24 h, the cells were incubated with the test compounds solubilized with 0.1% DMSO in the same medium without puromycin. After 4 h of incubation, tunicamycin (100 ng/mL) was added. After another 18 h of incubation, cells were assayed for renilla luminescence using DualGlo reagent (Promega) on a Tecan SPARK Cyto (Tecan). Test samples were normalized to the 0.1% DMSO control.

A further data set has as its system nuclear receptors. As to the kind of experiment: Selectivity profiling in Gal4-hybrid reporter gene assay panel. Particulars: at active concentration. The class given is cell-based, human.
The test system of another data set is rhodopsin expression. Details: method as in PMID 29148976, PMID 27893103. Particulars: cited from earlier work; for rhodopsin expression: murine retinal cells, immunofluorescence and qRT-PCR.
A further data set concerns Gal4-VP16. Details: method as in PMID 16834531. Particulars: cited from earlier work.
A further data set deals with T1, PNR (NR2E3) (Homo sapiens, UniProt Q9Y5X4).
T1 construct: encoding the hinge region and the LBD of the canonical isoform of the respective human nuclear receptors; expressed in transfected cells; host or cells: HEK293T
T1 sequence (Q9Y5X4 169-410 limits assumed): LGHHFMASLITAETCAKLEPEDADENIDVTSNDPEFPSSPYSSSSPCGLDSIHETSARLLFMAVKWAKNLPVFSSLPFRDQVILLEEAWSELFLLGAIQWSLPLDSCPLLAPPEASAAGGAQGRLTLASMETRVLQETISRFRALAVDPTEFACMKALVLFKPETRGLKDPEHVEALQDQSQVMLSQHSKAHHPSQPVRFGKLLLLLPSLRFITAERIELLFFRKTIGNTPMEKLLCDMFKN
As to the kind of experiment: Gal4-hybrid reporter gene assay PNR. Particulars: selected test concentration (Figure 3). The class given is cell-based. How it is done: Gal4-hybrid reporter gene assays were performed as described previously using the plasmids pFA-CMV-hTHRα-LBD,[170] pFA-CMV-hRARα-LBD,[171] pFA-CMV-hPPARα-LBD,[172] pFA-CMV-hPPARγ-LBD,[172] pFA-CMV-hPPARδ-LBD,[172] pFA-CMV-revERBα-LBD,[158] pFA-CMV-hRORα-LBD,[173] pFA-CMV-hLXRα-LBD,[118] pFA-CMV-hFXR-LBD,[174] pFA-CMV-hVDR-LBD,[171] pFA-CMV-hCAR-LBD,[171] pFA-CMV-hHNF4α-LBD,[110] pFA-CMV-hRXRα-LBD,[175] pFA-CMV-hTR2-LBD,[102] pFA-CMV-hTR4-LBD,[102] pFA-CMV-hTLX-LBD,[102] pFA-CMV-hNR2E3-LBD,[102] pFA-CMV-hNur77-LBD,[176] pFA-CMV-hSF1-LBD[158] encoding the hinge region and the LBD of the canonical isoform of the respective human nuclear receptors. pFR-Luc (Stratagene, La Jolla, CA, USA) was used as a reporter plasmid, and pRL-SV40 (Promega, Madison, WI, USA) was used for normalization of transfection efficiency and cell growth. HEK293T cells (German Collection of Microorganisms and Cell Culture GmbH, DSMZ) were cultured in Dulbecco’s modified Eagle’s medium (DMEM), high glucose supplemented with 10% fetal calf serum (FCS), sodium pyruvate (1 mM), penicillin (100 U/mL), and streptomycin (100 μg/mL) at 37 °C and 5% CO2 and seeded in 96-well plates (3 × 10^4 cells/well). The medium was changed to Opti-MEM without supplements, and the cells were transiently transfected with one pFA-CMV-hNR-LBD clone, pFR-Luc, and pRL-SV40 using Lipofectamine LTX reagent (Invitrogen, Thermo Fisher Scientific) according to the manufacturer’s instructions. Five hours after transfection, cells were incubated with the test compounds in Opti-MEM supplemented with penicillin (100 U/mL), streptomycin (100 μg/mL), and 0.1% DMSO. Each sample was set up in duplicates and tested in at least three independent experiments. After 16 h incubation, luciferase activity was measured using the Dual-Glo Luciferase Assay System (Promega) according to the manufacturer’s protocol on a Tecan Spark luminometer (Tecan Deutschland GmbH, Crailsheim, Germany). Firefly luminescence was divided by Renilla luminescence and multiplied by 1000 resulting in relative light units (RLUs) to normalize for transfection efficiency and cell growth. Fold activation was obtained by dividing the mean RLU of the test compound by the mean^a RLU of the untreated control, and relative activation was calculated by dividing the fold activation of a test sample by the fold activation of the respective reference agonist. Antagonistic effects were evaluated by coincubation of the test compound with the respective reference ligand.

Another data set has as its system COS-7 cells. As to the kind of experiment: Multiplex toxicity assay. The class given is cell-based. Particulars: 24 h, at active concentration. The protocol:
COS-7 cells (DSMZ #ACC 60) were cultured at 37°C and 5% CO2 in DMEM high glucose medium supplemented with sodium pyruvate (1 mM), penicillin (100 U/mL), streptomycin (100 µg/mL), and 10% fetal calf serum (FCS). After aspirating the wells, the cells were seeded at 1x10^5 cells per well in complete culture medium. […] Each sample was prepared in at least 4 biologically independent replicates. After incubation for 24 h, the wells were aspirated and incubated for 30 min with stimulation medium containing 1 µM NucView® 405 fluorogenic caspase-3 substrate (#10405, Biotium, Fremont, USA) and Live-or-Dye Nuc-Fix Red (0.05x, Biotium, Inc., Fremont, CA, 1691 USA) to detect apoptosis and necrosis, respectively. After incubation, a total of 6 fluorescence images per well at 10x magnification were taken to detect NucView®-positive (Ex: 381–400 nm, Em: 414–450 nm) and Live-or-Dye-positive cells (Ex: 543−566 nm, Em: 580−611 nm) using on a Tecan Spark Cyto (Tecan Group AG). Reference readings for background correction and detection of auto-fluorescence were taken at 414–450 nm prior to staining. Thereafter, wells were aspirated, the cells were incubated for 3 h with 90 µL culture medium (0.2% FCS) and 10 µL Cell Counting Kit-8 solution (CCK-8, MedChem Express #HY-K0301), and absorbance was measured at 1, 2, and 3h of incubation at 450 nm on a Tecan Spark Cyto to assess metabolic activity of the cells. Before drug administration, after the first medium exchange, 24 h after drug administration, and after fluorescence imaging cell confluence was assessed using the Tecan Spark Cyto, to account for changes in cell confluence due to drug administration and cell handling. The number of apoptotic cells, metabolic activity, and changes in cell confluence in response to drug treatment were all normalized to the vehicle control of each biological replicate individually.

Data set [1] relates to PNR. Particulars: reporter gene assay; cited from earlier work.
Data set [2] deals with PNR. Further details: method as in PMID 29148976. Particulars: ITC, cited from earlier work.
In data set [3] the target is HNF4α. Details: method as in PMID 22840769. Particulars: cited from earlier work.
Data set [4] has as its target T2, HNF4α (Homo sapiens, UniProt P41235).
T2 sequence (P41235 147-377 limits assumed): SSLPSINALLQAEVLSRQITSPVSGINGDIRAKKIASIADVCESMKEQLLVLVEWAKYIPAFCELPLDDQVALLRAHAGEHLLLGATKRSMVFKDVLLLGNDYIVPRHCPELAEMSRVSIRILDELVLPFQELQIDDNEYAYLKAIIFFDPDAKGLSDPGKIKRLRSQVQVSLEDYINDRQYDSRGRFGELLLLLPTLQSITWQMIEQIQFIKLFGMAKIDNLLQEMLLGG
Put plainly: Gal4-hybrid reporter gene assay HNF4α. Particulars: 3 µM, HEK293T.

Data set [5] concerns HNF4α and a set of its target genes. Details: method as in PMID 22840769. Particulars: T6PNE cells; cited from earlier work.
For another data set, the system named is human insulin promoter. Particulars: insulin promoter assay, cited from earlier work.
The next data set has as its system NR2E3. Details: method as in PMID 16879962. Particulars: reporter gene assay, cited from earlier work.
The subject of data set [6] is TLX. Particulars: reporter gene assay; read-out: EC50; cited from earlier work.
A further data set deals with TLX-regulated genes. Particulars: human glioblastoma cells (T98G), qRT-PCR; cited from earlier work.
The next data set has as its system TLX expression. Particulars: cited from earlier work.
The target of data set [7] is T3, TLX (Homo sapiens, UniProt Q9Y466).
T3 construct: encoding the hinge region and the LBD of the canonical isoform of the respective human nuclear receptors; expressed in transfected cells; host or cells: HEK293T
Put plainly: Gal4-hybrid reporter gene assay TLX. The class given is cell-based. Particulars: selected test concentration (Figure 3).

The conditions of data set [8]: microsomes; cited from earlier work.
Data set [9] concerns the target TLX. Particulars: DSF assays; cited from earlier work.
For another data set, the system named is HEK293T cells. Particulars: cited from earlier work.
The test system of data set [10] is HNF4α, RXRα, PPARα, LXRα, GR, PR, ER, RAR, RORγ, AR, and COUP-TF1. Further details: method as in PMID 32494682. Particulars: cited from earlier work.
For data set [11], the system named is COUP-TF2 target genes FOXM1 and CDK1. Further details: method as in PMID 32494682. Particulars: prostate cancer cells; cited from earlier work.
Another data set concerns COUP-TF2. Details: method as in PMID 32494682. Particulars: reporter gene assay; cited from earlier work.
On the set-up of data set [12]: method as in PMID 31298602, PMID 30702885. Particulars: cited from earlier work.
The conditions of data set [13]: cited from earlier work.

Each structure is given as a SMILES string. Like-named read-outs stand apart in the source and are kept apart here. Where only a bound is given, the exact number is not on record here.

T3 sequence (Q9Y466 155-383 limits assumed): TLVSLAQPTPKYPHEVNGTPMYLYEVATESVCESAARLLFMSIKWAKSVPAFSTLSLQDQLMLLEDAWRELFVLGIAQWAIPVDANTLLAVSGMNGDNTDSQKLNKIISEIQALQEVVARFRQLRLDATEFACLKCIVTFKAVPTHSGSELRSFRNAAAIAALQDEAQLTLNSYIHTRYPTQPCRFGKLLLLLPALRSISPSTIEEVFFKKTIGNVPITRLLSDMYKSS
Method for nuclear receptors: Compounds were tested at concentrations around EC90 according to the literature or at the highest nontoxic concentration (from the multiplex toxicity assay). […] (b) Selectivity profiling of NR2 modulators in a representative panel of nuclear receptors outside the NR2 family. […] Effects <5% of the respective reference ligands were considered as not relevant and omitted. Only effects are shown that are statistically significant against VP16 ctrl (Figure S3); n = 3.

Consider `Cc1cc(C)cc(NC(=O)CCc2nc3sc4c(c3c(=O)[nH]2)CCCC4)c1` [compound 22], for which the “tunicamycin-induced ATF6 activity” value in the data set on ATF6 is reported as “reduced”. Further, the “selectivity over other nuclear receptors” value in the data set with nuclear receptors is “Favorable selectivity profiles”. Besides, in the data set with rhodopsin expression, the rhodopsin expression result was “dose-dependent reduction”. For the same compound, the “activity in control experiments using Gal4-VP16” value in the data set with Gal4-VP16 was “inactive”. In addition, the PNR modulation entry at PNR (NR2E3) was “confirmed albeit with rather low efficacy”. In addition, the cytotoxicity entry in the data set on COS-7 cells was “lack of cytotoxicity”. Besides, in the data set on PNR [1], the IC50 was 250 nM.
For `COc1cc2nc(CN3CC=C(c4ccccc4)CC3)nc(O)c2cc1OC` [compound 23], the “tunicamycin-induced ATF6 activity” value in the data set on ATF6 was “reduced”. In addition, the “selectivity over other nuclear receptors” value in the data set with nuclear receptors is reported as “Favorable selectivity profiles”. In the data set on rhodopsin expression, the “Rho mRNA expression” value is “decreased” and the rhodopsin expression entry is “dose-dependent reduction”. Besides, the “activity in control experiments using Gal4-VP16” value in the data set on Gal4-VP16 is “inactive”. Besides, the PNR modulation result at PNR (NR2E3) is recorded as “confirmed albeit with rather low efficacy”. Besides, the cytotoxicity entry with COS-7 cells is given as “lack of cytotoxicity”. In addition, the Kd on PNR [2] was 67000 nM. The Kd at PNR [2] (listed as Photoregulin3 (23)) is 64000 nM. Moreover, the IC50 with PNR [1] is 70 nM.
For `Cc1nc2ccccc2n1S(=O)(=O)c1cc([N+](=O)[O-])ccc1Cl` [compound 1], the Kd on HNF4α [3] (Try/Trp fluorescence quenching assays) was 12 nM. Also, the EC50 in the data set with HNF4α [3] (direct binding, read-out: EC50 of quenching of intrinsic Tyr/Trp fluorescence of HNF4α) was 11.9 nM. For the same compound, at HNF4α [4], the “effects on HNF4 activity” value was “no effects”. The “expression of HNF4α and a set of its target genes” value in data set [5] is on record as “suppress the expression”. In addition, the IC50 with human insulin promoter is 900 nM; with human insulin promoter (listed as BIM5078 (1)) it was 930 nM.
Turning to `O=C(Nc1ccc(-c2nc3ccc(NC(=O)C4CC4)cc3[nH]2)cc1)c1ccccc1Cl` [compound 24], the values for the EC50 in the data set on NR2E3 (read-out: EC50 (first value of cell)) and in the data set with NR2E3 (read-out: EC50 (second value of cell)) were 141 nM and 35 nM, respectively.
On to `Cc1cc(C(=O)N2CCN(C(c3ccccc3)c3ccccc3)CC2)nn1C` [compound 15], for which, in the data set with TLX [6], the EC50 is 1000 nM. Also, in the data set with TLX-regulated genes, the “SIRT, SLC1a1 and p21 induction” value is “trend toward SIRT and SLC1a1 but not p21 induction”. Besides, the TLX expression result in the data set on TLX expression is reported as “not affected”. The TLX modulation result on TLX [7] is listed as “not observed”. Further, the “t1/2 against microsomal degradation” value in [8] was less than 15 min. For the same compound, at TLX [9], the Kd was 650 nM. The “toxicity in WST-1 assay” value in the data set with HEK293T cells is recorded as “Low toxicity”.
`COc1ccc(CCNc2ncnc3sccc23)cc1OC` [compound 28]: the “interaction with related NRs in pulldown assay” value in [10] is reported as “no relevant interaction”. The “expression of COUP-TF2 target genes FOXM1 and CDK1” value in data set [11] is “altered expression”. Besides, in the data set on COUP-TF2, the half-inhibitory concentration (IC50) was 2800 nM.
On to `C=C(c1ccc(C(=O)O)cc1)c1cc2c(cc1C)C(C)(C)CCC2(C)C` [compound 6, bexarotene], for which, in data set [12], the lipophilicity result was “highly lipophilic”. Besides, the “adverse effects associated with clinical use” value in data set [13] was “elevated triglyceride and cholesterol levels, leukopenia, hypothyroidism, and an increased risk of acute pancreatitis”.

(Values after publication PMC7617459, “Comparative Evaluation and Profiling of Chemical Tools for the Nuclear Hormone Receptor Family 2” (ACS pharmacology & translational science, 2025).)
